Biological target: T1, histone deacetylase 3 (HDAC3) (Homo sapiens, UniProt O15379)
T1 construct: full length human HDAC3 (NP_003874.2) with a C-terminal FLAG tag, in complex with human NCOR2 amino acids 395–489 with an N-terminal 6xHis tag; with NCOR2 (SMRT) amino acids 395–489
Assay: Fluor de Lys fluorescent deacetylase assay, fractional activity vs [10-HDA]
Assay type: biochemical

T1 sequence (O15379 whole entry, the tested form may be a part): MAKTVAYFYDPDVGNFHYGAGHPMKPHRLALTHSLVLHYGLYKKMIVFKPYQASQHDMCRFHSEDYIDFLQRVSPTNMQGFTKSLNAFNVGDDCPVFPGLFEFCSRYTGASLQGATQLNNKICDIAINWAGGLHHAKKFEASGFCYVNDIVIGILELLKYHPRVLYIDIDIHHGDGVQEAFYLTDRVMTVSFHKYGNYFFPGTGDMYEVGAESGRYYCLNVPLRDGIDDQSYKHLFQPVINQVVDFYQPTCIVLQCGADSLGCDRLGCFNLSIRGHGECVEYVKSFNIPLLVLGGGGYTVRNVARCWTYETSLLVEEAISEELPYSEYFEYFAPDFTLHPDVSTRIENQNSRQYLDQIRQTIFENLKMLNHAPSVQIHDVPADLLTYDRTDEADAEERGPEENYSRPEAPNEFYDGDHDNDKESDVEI
T1 sequence (Q9Y618 395-489 partner): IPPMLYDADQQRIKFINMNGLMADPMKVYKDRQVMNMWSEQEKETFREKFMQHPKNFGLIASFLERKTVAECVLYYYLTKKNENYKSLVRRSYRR

Ki: 5.32 mM
SMILES: O=C(O)/C=C/CCCCCCCO [10-HDA, 10-hydroxy-2E-decenoic acid]
